According to patent publication US20220387405A1, “METHODS OF TREATMENT WITH N-((R)-1-(3-CHLOROPYRIDIN-2-YL)-2,2,2-TRIFLUOROETHYL)-2-((S)-2,6-DIOXOPIPERIDIN-3-YL)-1-OXOISOINDOLINE-5-CARBOXAMIDE” (CELGENE CORPORATION, priority 2021, published 2022):

Assays:
[1] = test system: leukemic cells from TP53 WT AML patients; experiment: PharmaFlow test (Vivia), cytotoxic effect on leukemic cells in AML patient BM samples; assay type: cell-based, human; conditions: AML patient samples
[2] = test system: Normal T lymphocytes in BM samples; experiment: PharmaFlow test, normal T lymphocytes in AML patient BM samples; assay type: cell-based, human; conditions: BM samples of AML patients; for Compound 1 all but 1 patient
[3] = test system: human peripheral blood (PB) lymphocytes; experiment: In vitro mammalian cell micronucleus test; conditions: 4 hours with and without S9, 24 hours without S9; compared with negative controls
Protocol: Compound 1 was tested in the in vitro mammalian cell micronucleus test in human peripheral blood (PB) lymphocytes in the presence and absence of a metabolic activation system, Aroclor-induced rat liver fraction (S9), for 4 hours, and in the absence of S9 for 24 hours. The highest concentration tested was 481 μg/mL. Dimethyl sulfoxide (DMSO) was used as the solvent. […] In addition, 2 lower concentrations with appropriate concentration and cytotoxicity spacing were chosen for micronucleus scoring in each regime.

## COc1cc(C(=O)O)ccc1NC(=O)[C@@H]1N[C@@H](CC(C)(C)C)[C@](C#N)(c2ccc(Cl)cc2F)[C@H]1c1cccc(Cl)c1F [RG7388, idasanutlin, reference compound]
[1]
  cytotoxicity in leukemic cells: pan-cytotoxicity
[2]
  cytotoxicity in T lymphocytes: pan-cytotoxicity

## COC(=O)Nc1nc2ccc(C(=O)c3cccs3)cc2[nH]1 [nocodazole, reference compound]
[3]
  proportion of micronucleated binucleate cells (MBC): statistically significant increases

## O=P1(N(CCCl)CCCl)NCCCO1 (stereo not shown) [cyclophosphamide monohydrate, reference compound]
[3]
  proportion of micronucleated binucleate cells (MBC): statistically significant increases
